In brackets after ≈: the same amount, converted by molar mass. Where a name gives a salt, the structure may show the parent alone. Read-outs that look alike come from different tables or passages of the source.
Key:
[1] = Stability of mangiferin in human plasma QC samples; type: in vitro ADME; conditions: for Stability (%, Mean ± RSD) Autosampler / Stability (%, Mean ± RSD) Room Temp. / Stability (%, Mean ± RSD) Freeze–Thaw: human plasma QC, n = 6; for Stability (%, Mean ± RSD) Autosampler: autosampler 4 h at 12 °C; for Stability (%, Mean ± RSD) Room Temp.: room temperature for 4 h; for Stability (%, Mean ± RSD) Freeze–Thaw: three cycles of freezing (−80 °C) and thawing (20 °C)
Method: Quality control (QC) samples were prepared in the same manner and evaluated at low, medium, and high concentrations: 50, 500, and 1000 ng/mL. Blank plasma samples were also included in the injection series to account for any potential carryover. The stability of mangiferin in human plasma was evaluated by analyzing the same three levels of QC samples (n = 6) after storage at room temperature for 4 h, in the autosampler for 4 h at 12 °C, and after three cycles of freezing (−80 °C) and thawing (20 °C).

[2] = cited from earlier work
[3] = set-up: method as in PMID 26434292; conditions: human plasma, mangiferin >90% purity, cited from earlier work
[4] = set-up: method as in earlier work; conditions: pure mangiferin; cited from earlier work
mice = conditions: cited from earlier work
[5] = set-up: method as in doi:10.1155/2019/9272710; conditions: male Sprague Dawley rats; cited from earlier work
rats = conditions: dose of 400 mg of the purified salt; cited from earlier work

O=c1c2cc(O)c(O)cc2oc2cc(O)c([C@@H]3O[C@H](CO)[C@@H](O)[C@H](O)[C@H]3O)c(O)c12 [Mangiferin]
stability throughout the analytical process ([1]; human plasma QC samples): stable
Stability (%, Mean ± RSD) Autosampler ([1]; 1.000 ng/mL as printed): 101.63 ± 8.50%
Stability (%, Mean ± RSD) Room Temp. ([1]; 1.000 ng/mL as printed): 101.75 ± 8.11%
Stability (%, Mean ± RSD) Freeze–Thaw ([1]; 1.000 ng/mL as printed): 102.64 ± 1.05%
Stability (%, Mean ± RSD) Autosampler ([1]; 50 ng/mL): 109.92 ± 2.77%
Stability (%, Mean ± RSD) Room Temp. ([1]; 50 ng/mL): 103.10 ± 3.66%
Stability (%, Mean ± RSD) Freeze–Thaw ([1]; 50 ng/mL): 108.60 ± 3.87%
Stability (%, Mean ± RSD) Autosampler ([1]; 500 ng/mL): 102.02 ± 8.81%
Stability (%, Mean ± RSD) Room Temp. ([1]; 500 ng/mL): 101.27 ± 9.08%
Stability (%, Mean ± RSD) Freeze–Thaw ([1]; 500 ng/mL): 101.68 ± 0.91%
increase of exposure on inhibition of the transporter P-gp ([2]; pure mangiferin): approximately threefold
Cmax ([3]; 100 mg oral dose): 19.94 ng/mL
Cmax ([3]; 900 mg oral dose): 38.64 ng/mL
aqueous solubility [4]: 111 µg/mL (≈ 263 µM)

O=c1c2cc(O)c(O)cc2oc2cc(O)c([C@@H]3O[C@H](CO)[C@@H](O)[C@H](O)[C@H]3O)c(O)c12 [mangiferin monosodium salt, Monosodium mangiferin]
maximum tolerated dose (MTD) (mice): 12,000 mg/kg
relative bioavailability of the salt vs pure mangiferin based on AUC0–∞ [5]: 5.7 times
safety in rats (rats): generally safe

O=c1c2cc(O)c(O)cc2oc2cc(O)cc(O)c12 [norathyriol]
Tmax ([2]; in vivo): ~15 h
absorption of norathyriol as fraction of the mangiferin dose ([2]; in vivo): approximately 0.1%
